# “Also recorded” adds a separate entry of the source.
# Columns and labels:
# [1] = molecular target: T1, recombinant full-length Fes (Homo sapiens, UniProt P07332); experiment: In vitro kinase assay (Z'-LYTE); assay type: biochemical; conditions: highest concentration tested 100 μM
# T1 construct: in vitro kinase assays using recombinant purified full-length Fes; made in house; host or cells: E. coli
# Experimental: Recombinant protein kinase assays were performed using the FRET-based Z’-LYTE Kinase Assay according to the manufacturer’s instructions (Thermo Fisher Scientific). […] The Tyr-2 peptide was used as substrate for all recombinant kinases. Kinases were preincubated with inhibitors for 30 minutes, followed by addition of ATP and peptide substrate for 1 hour. Reactions were quenched by addition of development reagent, followed by incubation for an additional hour prior to fluorescence measurements on a SpectraMax M5 microplate reader. IC50 values were calculated by non-linear regression analysis of the resulting concentration-response curves using GraphPad PRISM.
# [2] = tested on: MV4-11 cells; experiment: Growth inhibition, CellTiter-Blue viability, 72 h; assay type: cell-based; conditions: Homo sapiens, MV4-11 (Flt3-ITD+), read-out: Growth Suppression in AML Cell Lines (IC50, nM) MV4-11
# Experimental: (§1) Cells were seeded at a density of 100,000 cells per 1.0 ml in 48-well culture plates. Compounds were added to various concentrations while holding the DMSO concentration constant at 0.1%. Cell viability was assessed 72 hours later using the CellTiter-Blue Cell Viability assay (Promega) according to the manufacturer’s protocol and a SpectraMax Multi-Mode Microplate Reader (Molecular Devices). IC50 values were determined by non-linear regression analysis of concentration-response curves using the GraphPad PRISM software package (version 6.0). Apoptosis was determined using the same cell culture conditions and the Apo-ONE Homogeneous Caspase-3/7 Assay (Promega) and the manufacturer’s protocol.
# (§2) Fig 2 Fes tyrosine kinase inhibitors induce growth arrest in Flt3-ITD^+ AML cell lines. A) The Flt3-ITD^+ cell lines MV4-11, MOLM-13, and MOLM-14, along with THP-1 (wild-type FLT3) were incubated with each of the kinase inhibitors shown over a range of concentrations, and cell viability was measured 72 h later using the CellTiter-Blue Assay (see Materials and methods). Raw fluorescence data were corrected for background and then normalized to cultures grown in the presence of the DMSO carrier solvent. Each assay condition was performed in triplicate, and results are presented as the mean of the normalized values ± the SD. The resulting dose-response curves were fitted by non-linear regression analysis, and the resulting IC50 values are shown in Table 1.
# [3] = tested on: MOLM-13 cells; experiment: Growth inhibition, CellTiter-Blue viability, 72 h; assay type: cell-based; conditions: Homo sapiens, MOLM-13 (Flt3-ITD+), read-out: Growth Suppression in AML Cell Lines (IC50, nM) MOLM-13
# Experimental: as §1, §2
# [4] = tested on: THP-1 cells; experiment: Growth inhibition, CellTiter-Blue viability, 72 h; assay type: cell-based; conditions: Homo sapiens, THP-1 (wild-type Flt3), read-out: Growth Suppression in AML Cell Lines (IC50, nM) THP-1
# Experimental: as §1, §2
# [5] = tested on: MOLM-14 cells; experiment: Growth inhibition, CellTiter-Blue viability, 72 h; assay type: cell-based; conditions: Homo sapiens, MOLM-14 (Flt3-ITD+), read-out: Growth Suppression in AML Cell Lines (IC50, nM) MOLM-14
# Experimental: as §1, §2
# [6] = tested on: T2, Fes in MV4-11 and MOLM-14 cells; experiment: Immunoprecipitation/immunoblot of Fes activation loop phosphorylation (pY713) in AML cells; assay type: cell-based, human; conditions: compound at in vitro IC90 for Fes, 16 h (tandutinib: IC90 for Flt3-ITD, 6 h)
# T2 construct: endogenous in cells; host or cells: MV4-11 and MOLM-14
# Experimental: (§3) AML cells (2.5 x 10^6 in 5 mL) were cultured in the presence of kinase inhibitors or DMSO alone for 6 to 16 hours prior to lysis by sonication in RIPA buffer (50 mM Tris-HCl, pH 7.4, 150 mM NaCl, 1 mM EDTA, 1% Triton X-100, 0.1% SDS, 1% sodium deoxycholate) supplemented with 1 mM sodium orthovanadate, 1 mM sodium fluoride, 5 units/ml Benzonase (Novagen), and SigmaFAST EDTA-free protease inhibitor cocktail (Sigma). Flt3 and Fes were immunoprecipitated from 1 mg of cell lysate with 2 μg of antibody and 25 μL of protein G-Sepharose beads (Life Technologies) overnight at 4°C. Immunoprecipitates were washed three times by resuspension in 1.0 ml of RIPA buffer. Immunoprecipitated proteins were separated by SDS-PAGE, transferred to PVDF membranes and probed with the indicated antibodies followed by alkaline phosphatase-linked secondary antibodies. CDP-Star Western Blot Chemiluminescence Reagent (Perkin-Elmer) was used for detection.
# (§4) Fes and Flt3 kinase proteins were then immunoprecipitated from cell lysates, followed by immunoblotting with antibodies to phosphotyrosine (pTyr), the Fes activation loop phosphotyrosine (pY713), as well as the Flt3 and Fes proteins.
# [7] = tested on: Flt3-D835Y in TF-1/Flt3-D835Y cells; experiment: Immunoprecipitation/immunoblot of Flt3-D835Y phosphotyrosine content in TF-1/Flt3-D835Y cells; assay type: cell-based, human; conditions: immunoblot, compound at in vitro IC90
# Experimental: as §3
# (§5) Raw fluorescence data were corrected for background and then normalized to cultures grown in the presence of the DMSO carrier solvent. Each condition was performed in triplicate, and results are presented as the mean of the normalized values ± the SD. The resulting dose-response curves were fitted by non-linear regression analysis for estimation of the IC50 values (see Table 2). […] Fes and Flt3 kinase proteins were then immunoprecipitated from cell lysates followed by immunoblotting with antibodies to phosphotyrosine (pTyr), the Fes activation loop phosphotyrosine (pY713), as well as the Flt3 and Fes proteins.
# [8] = tested on: Fes in TF-1/Flt3-ITD cells; experiment: Immunoprecipitation/immunoblot of Fes pY713 in TF-1/Flt3-ITD cells; assay type: cell-based, human; conditions: compound at in vitro IC90 for Fes, 16 h (tandutinib: IC90 for Flt3-ITD, 6 h)
# Experimental: as §3, §5
# [9] = tested on: Flt3-ITD+ AML cell lines (MV4-11, MOLM-13, MOLM-14); experiment: Growth inhibition across Flt3-ITD+ AML cell lines; assay type: cell-based; conditions: Homo sapiens, 72 h, read-out: IC50 values for growth inhibition, range over the Flt3-ITD+ AML cell lines
# Experimental: as §1
# Raw fluorescence data were corrected for background and then normalized to cultures grown in the presence of the DMSO carrier solvent. Each assay condition was performed in triplicate, and results are presented as the mean of the normalized values ± the SD.
# [10] = tested on: Flt3-ITD in Ba/F3 cells; conditions: 100 nM; cited from earlier work
# [11] = tested on: Flt3-ITD+ AML cell lines (MV4-11, MOLM-13, MOLM-14); experiment: Apoptosis, Apo-ONE Caspase 3/7 assay; assay type: cell-based, human; conditions: 1.0 μM, 72 h
# Experimental: as §1
# Cell viability was measured in parallel using the CellTiter-Blue assay, and the resulting data are presented as the ratio of Caspase activity to cell viability as per the manufacturer’s protocol. All assays were performed in triplicate, and data are presented as the mean ratios ± SD. Asterisks indicate statistical significance between each treatment group vs. the corresponding DMSO control group with p < 0.05 (Student’s t-test).
# [12] = tested on: Flt3-ITD in MV4-11 and MOLM-14 cells; experiment: Immunoprecipitation/immunoblot of Flt3 phosphotyrosine content in AML cells; assay type: cell-based, human; conditions: compound at in vitro IC90 for Fes, 16 h (tandutinib: IC90 for Flt3-ITD, 6 h)
# Experimental: as §3, §4
# [13] = tested on: Flt3-ITD-transformed Ba/F3 cells; conditions: cited from earlier work
# [14] = tested on: TF-1/Flt3-D835Y cells; experiment: Inhibitor sensitivity of TF-1 cell populations, CellTiter-Blue, 72 h; assay type: cell-based, human; conditions: Homo sapiens, TF-1, 72 h, read-out: Inhibitor sensitivity of TF-1 Cell Populations (IC50, nM) Flt3-D835Y
# Experimental: as §1
# (§6) For each retroviral transduction, TF-1 cells (1 x 10^6) were suspended in 5 mL of undiluted viral supernatant and plated in one well of a 6-well tissue culture dish. Polybrene (Sigma) was added to a final concentration of 4 μg/mL and the TF-1 cells were centrifuged at 1000 x g for 3 hours to enhance retroviral mediated gene transfer. After centrifugation, the virus was removed and replaced with fresh medium.
# as §5
# [15] = tested on: TF-1 cells transduced with an empty retroviral vector (Control); experiment: as above; assay type: cell-based, human
# Experimental: as §1, §6, §5
# [16] = tested on: TF-1/Flt3-ITD cells; experiment: as above; assay type: cell-based, human; conditions: Homo sapiens, TF-1, 72 h, read-out: Inhibitor sensitivity of TF-1 Cell Populations (IC50, nM) Flt3-ITD
# Experimental: as §1, §6, §5
# [17] = tested on: TF-1 cells expressing Flt3-WT; experiment: as above; assay type: cell-based; conditions: Homo sapiens, TF-1, 72 h, read-out: Inhibitor sensitivity of TF-1 Cell Populations (IC50, nM) Flt3-WT
# Experimental: as §1, §6, §5
# [18] = tested on: Flt3-ITD in TF-1/Flt3-ITD cells; experiment: Immunoprecipitation/immunoblot of Flt3 phosphotyrosine content in TF-1/Flt3-ITD cells; assay type: cell-based, human; conditions: compound at in vitro IC90 for Fes, 16 h (tandutinib: IC90 for Flt3-ITD, 6 h)
# Experimental: as §3, §5
# [19] = tested on: Stat5 activation; parameters: method as in PMID 22411868; conditions: MV4-11 cells and AML patient samples; cited from earlier work
# [20] = tested on: THP-1 cells; experiment: Apoptosis, Apo-ONE Caspase 3/7 assay; assay type: cell-based, human; conditions: 1.0 μM, 72 h
# Experimental: as §1
# Fig 3 Fes tyrosine kinase inhibitors induce apoptosis in Flt3-ITD^+ AML cell lines. The Flt3-ITD^+ cell lines MV4-11, MOLM-13, and MOLM-14, along with THP-1 (wild-type FLT3), were incubated with each of kinase inhibitors shown at a final concentration of 1 μM and apoptosis was measured 72 h later using the Apo-ONE Caspase 3/7 Assay (Promega). Cell viability was measured in parallel using the CellTiter-Blue assay, and the resulting data are presented as the ratio of Caspase activity to cell viability as per the manufacturer’s protocol. All assays were performed in triplicate, and data are presented as the mean ratios ± SD. […]
# [21] = tested on: Flt3 and Fes in primary AML patient samples; parameters: method as in PMID 20111072; conditions: cited from earlier work
# T1 sequence (P07332 whole entry): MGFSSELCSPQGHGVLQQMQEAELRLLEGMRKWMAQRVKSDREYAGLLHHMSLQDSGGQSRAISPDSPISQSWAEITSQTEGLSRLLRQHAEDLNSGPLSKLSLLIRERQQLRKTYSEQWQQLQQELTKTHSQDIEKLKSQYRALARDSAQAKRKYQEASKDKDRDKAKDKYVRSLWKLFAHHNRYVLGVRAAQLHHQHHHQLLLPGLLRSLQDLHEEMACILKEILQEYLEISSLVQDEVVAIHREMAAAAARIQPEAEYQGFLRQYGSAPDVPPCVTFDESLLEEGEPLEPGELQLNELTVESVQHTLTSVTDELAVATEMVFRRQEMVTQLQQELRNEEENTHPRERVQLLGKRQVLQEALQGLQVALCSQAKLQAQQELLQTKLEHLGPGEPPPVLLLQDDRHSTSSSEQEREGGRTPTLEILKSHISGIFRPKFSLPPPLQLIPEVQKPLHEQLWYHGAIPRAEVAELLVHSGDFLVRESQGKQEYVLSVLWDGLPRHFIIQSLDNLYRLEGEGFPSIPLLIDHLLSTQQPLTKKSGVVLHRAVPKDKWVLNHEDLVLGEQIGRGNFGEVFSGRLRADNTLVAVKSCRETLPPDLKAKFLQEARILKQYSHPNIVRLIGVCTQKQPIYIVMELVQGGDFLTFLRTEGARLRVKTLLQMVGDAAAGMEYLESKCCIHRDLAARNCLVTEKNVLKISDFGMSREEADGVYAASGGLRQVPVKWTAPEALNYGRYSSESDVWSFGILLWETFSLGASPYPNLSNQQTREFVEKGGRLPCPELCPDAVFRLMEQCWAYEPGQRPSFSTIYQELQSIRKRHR
compound,measurement,setting,value
"COc1cc2c(N3CCN(C(=O)Nc4ccc(OC(C)C)cc4)CC3)ncnc2cc1OCCCN1CCCCC1 [Tandutinib, reference compound]",Effect on Fes kinase activity in vitro (words),[1],does not inhibit Fes in vitro or in cells
same,Effect on Fes kinase activity in vitro (words),[1]; listed as tandutinib,no effect
same,IC50,[2],502 nM
same,IC50,[3],532 nM
same,IC50,[4],> 3000 nM
same,IC50,[5],232 nM
same,Inhibition of Fes activation loop phosphorylation in MV4-11 and MOLM-14 cells,[6],little effect
"COc1cc(N2CCC(N3CCN(C)CC3)CC2)ccc1Nc1ncc(Cl)c(Nc2ccccc2S(=O)(=O)C(C)C)n1 [TAE-684, reference compound]",Inhibition of Flt3-D835Y phosphotyrosine content in TF-1/Flt3-D835Y cells,[7],complete inhibition; also recorded: completely suppressed
same,IC50,[2],123 nM
same,IC50,[3],166 nM
same,IC50,[4],> 3000 nM
same,IC50,[5],74 nM
same,Inhibition of Fes activation loop phosphorylation in TF-1/Flt3-ITD cells,[8],inhibited Fes
same,IC50,[9],19 to 166 nM
same,Effect on Flt3-ITD phosphotyrosine content in Ba/F3 cells expressing Flt3-ITD,[10],no effect
same,Apoptosis (Caspase 3/7 activity) in Flt3-ITD+ AML cell lines,[11],equal to or greater than that observed with tandutinib
same,Inhibition of Fes activation loop phosphorylation in MV4-11 and MOLM-14 cells,[6],did inhibit Fes
same,Inhibition of Flt3-ITD phosphotyrosine content in MV4-11 and MOLM-14 cells,[12],no effect
same,Effect on Flt3-ITD-transformed Ba/F3 cell proliferation,[13],no effect
same,IC50,[14],83 nM
same,IC50,"[15]; Homo sapiens, TF-1, empty vector control, 72 h",> 1000 nM
same,Nonspecific cytotoxicity in TF-1 cells expressing wild-type Flt3 or vector control cells,[15]; TF-1/Flt3-WT and vector control cells,some nonspecific cytotoxicity in the low micromolar range
same,IC50,[16],82 nM
same,IC50,[17],> 1000 nM
same,Inhibition of Flt3-ITD phosphotyrosine content in TF-1/Flt3-ITD cells,[18],no effect on Flt3-ITD; also recorded: did not affect Flt3-ITD phosphotyrosine content
Cc1nc(Nc2ncc(C(=O)Nc3c(C)cccc3Cl)s2)cc(N2CCN(CCO)CC2)n1 [dasatinib],Effect on Stat5 activation,[19],reduced Stat5 activation
"CN[C@@H]1C[C@H]2O[C@@](C)([C@@H]1OC)n1c3ccccc3c3c4c(c5c6ccccc6n2c5c31)C(=O)NC4 [staurosporine, reference compound]",Apoptosis (Caspase 3/7 activity) in Flt3-ITD+ AML cell lines,[11],strong apoptotic response
same,Apoptosis (Caspase 3/7 activity) in THP-1 cells,[20],strong apoptotic response
Cc1cc(C)c(/C=C2\C(=O)Nc3ccccc32)[nH]1 [SU5416],Effect on Flt3 and Fes activation in primary AML patient samples,[21],reduced both Flt3 and Fes activation

# Reference: PMC5519068 (PLoS ONE, 2017)
